According to patent US20230165980A1, “METHODS FOR RADIOLABELING PSMA BINDING LIGANDS AND THEIR KITS” (Novartis AG, priority 2020, published 2023):

Assay: Radiochemical purity and radiochemical stability of ^68GaPSMA-11 by HPLC
Type: physicochemical
Settings: for [^68Ga] Gallium PSMA-11 (sum of stereosiomers), HPLC / [^68Ga] Gallium free, HPLC / [^68Ga] Gallium main degradant, HPLC: t0 h
Protocol: Radiochemical Purity and Identification of ^68GaPSMA-11 by HPLC
Chromatographic Conditions
Radical Scavenger to be used for the improvement of the radiochemical stability of ^68Ga-PSMA-11, tests were performed according to a varied approach in order to consider all the parameters that may affect the radiochemical purity of the product (activity, pH, volume, amount of Gentisic Acid).
Stability tests were performed on the freeze dried product containing the final formulation. […] Kits manufactured with the final formulation, indeed, were stored at different stability conditions (2-8° C.; 25° C. and 40° C.) and were tested at different time points for API-assay, Radiochemical Purity and Radiochemical Stability of the radiolabelled product. Radiochemical Purity and Stability were assessed only eluting IRE Generator which represented the most stressful condition in terms of Radioactive Concentration (Volumic Activity).

[1] = Gentisic Acid 0 μg, IRE 17.19 mCi, 1 mL, pH 5.24
[2] = Gentisic Acid 200 μg, IRE 17.85 mCi, 1 mL, pH 5.22
[3] = Gentisic Acid 200 μg, IRE 18.07 mCi, 1 mL, pH 5.25
[4] = Gentisic Acid 200 μg, ITG 35.92 mCi, 4 mL, pH 4.83
[5] = Gentisic Acid 400 μg, IRE 17.44 mCi, 1 mL, pH 5.13
[6] = Gentisic Acid 400 μg, IRE 17.79 mCi, 1 mL, pH 5.11
[7] = Gentisic Acid 400 μg, ITG 16.9 mCi, 4 mL, pH 4.85
[8] = Gentisic Acid 400 μg, ITG 31.97 mCi, 4 mL, pH 4.81
[9] = Gentisic Acid 1000 μg, E&Z 15.65 mCi, 5 mL, pH 3.75
[10] = Gentisic Acid 1000 μg, IRE 17.1 mCi, 1 mL, pH 5.08
[11] = Gentisic Acid 1000 μg, ITG 30.9 mCi, 4 mL, pH 4.87
[12] = final formulation kit at Release, E&Z 15.65 mCi, 5 mL, pH 3.75
[13] = final formulation kit at Release, E&Z 16.80 mCi, 5 mL, pH 3.75
[14] = final formulation kit at Release, IRE 32.27 mCi, 1 mL, pH 4.95
[15] = final formulation kit at Release, IRE 32.95 mCi, 1 mL, pH 5.07
[16] = final formulation kit at Release, ITG 29.74 mCi, 4 mL, pH 4.67
[17] = final formulation kit at Release, ITG 30.90 mCi, 4 mL, pH 4.67
[18] = kit stored 3 months at 2-8° C., IRE 25.76 mCi, 1 mL, pH 5.29
[19] = kit stored 3 months at 25° C., IRE 24.56 mCi, 1 mL, pH 5.16
[20] = kit stored 3 months at 40° C., IRE 24.86 mCi, 1 mL, pH 5.23
[21] = kit stored 6 months at 2-8° C., IRE 19.90 mCi, 1 mL, pH 5.13
[22] = kit stored 6 months at 25° C., IRE 18.88 mCi, 1 mL, pH 5.09
[23] = kit stored 6 months at 40° C., IRE 19.34 mCi, 1 mL, pH 5.15

Substance: ^68Ga-PSMA-11 [[^68Ga] Gallium PSMA-11]
- time for which the radiolabelled product is stable with high radiochemical purity (400 μg Gentisic Acid): up to 4 hours
- [^68Ga] Gallium PSMA-11 (sum of stereosiomers), HPLC [1]: 92.71%
- [^68Ga] Gallium free, HPLC [1]: 0.15%
- [^68Ga] Gallium main degradant, HPLC [1]: 6.61%
- [^68Ga] Gallium PSMA-11 (sum of stereosiomers), HPLC [2]: 97.76%
- [^68Ga] Gallium free, HPLC [2]: 0.00%
- [^68Ga] Gallium main degradant, HPLC [2]: 1.83%
- [^68Ga] Gallium PSMA-11 (sum of stereosiomers), HPLC [3]: 98.46%
- [^68Ga] Gallium free, HPLC [3]: 0.00%
- [^68Ga] Gallium main degradant, HPLC [3]: 1.21%
- [^68Ga] Gallium PSMA-11 (sum of stereosiomers), HPLC [4]: 99.56%
- [^68Ga] Gallium free, HPLC [4]: 0.00%
- [^68Ga] Gallium main degradant, HPLC [4]: 0.19%
- [^68Ga] Gallium PSMA-11 (sum of stereosiomers), HPLC [5]: 99.29%
- [^68Ga] Gallium free, HPLC [5]: 0.00%
- [^68Ga] Gallium main degradant, HPLC [5]: 0.71%
- [^68Ga] Gallium PSMA-11 (sum of stereosiomers), HPLC [6]: 98.88%
- [^68Ga] Gallium free, HPLC [6]: 0.12%
- [^68Ga] Gallium main degradant, HPLC [6]: 1.00%
- [^68Ga] Gallium PSMA-11 (sum of stereosiomers), HPLC [7]: 99.16%
- [^68Ga] Gallium free, HPLC [7]: 0.08%
- [^68Ga] Gallium main degradant, HPLC [7]: 0.19%
- [^68Ga] Gallium PSMA-11 (sum of stereosiomers), HPLC [8]: 99.35%
- [^68Ga] Gallium free, HPLC [8]: 0.00%
- [^68Ga] Gallium main degradant, HPLC [8]: 0.16%
- [^68Ga] Gallium PSMA-11 (sum of stereosiomers), HPLC [9]: 99.87%
- [^68Ga] Gallium free, HPLC [9]: 0.00%
- [^68Ga] Gallium main degradant, HPLC [9]: 0.00%
- [^68Ga] Gallium PSMA-11 (sum of stereosiomers), HPLC [10]: 99.67%
- [^68Ga] Gallium free, HPLC [10]: 0.00%
- [^68Ga] Gallium main degradant, HPLC [10]: 0.33%
- [^68Ga] Gallium PSMA-11 (sum of stereosiomers), HPLC [11]: 99.80%
- [^68Ga] Gallium free, HPLC [11]: 0.01%
- [^68Ga] Gallium main degradant, HPLC [11]: 0.02%
- [^68Ga] Gallium PSMA-11 (sum of stereosiomers), HPLC [12]: 99.87%
- [^68Ga] Gallium free, HPLC [12]: 0.00%
- [^68Ga] Gallium main degradant, HPLC [12]: 0.00%
- [^68Ga] Gallium PSMA-11 (sum of stereosiomers), HPLC [13]: 99.68%
- [^68Ga] Gallium free, HPLC [13]: 0.00%
- [^68Ga] Gallium main degradant, HPLC [13]: 0.19%
- [^68Ga] Gallium PSMA-11 (sum of stereosiomers), HPLC [14]: 99.58%
- [^68Ga] Gallium free, HPLC [14]: 0.00%
- [^68Ga] Gallium main degradant, HPLC [14]: 0.00%
- [^68Ga] Gallium PSMA-11 (sum of stereosiomers), HPLC [15]: 99.66%
- [^68Ga] Gallium free, HPLC [15]: 0.00%
- [^68Ga] Gallium main degradant, HPLC [15]: 0.23%
- [^68Ga] Gallium PSMA-11 (sum of stereosiomers), HPLC [16]: 99.81%
- [^68Ga] Gallium free, HPLC [16]: 0.00%
- [^68Ga] Gallium main degradant, HPLC [16]: 0.05%
- [^68Ga] Gallium PSMA-11 (sum of stereosiomers), HPLC [17]: 98.80%
- [^68Ga] Gallium free, HPLC [17]: 0.01%
- [^68Ga] Gallium main degradant, HPLC [17]: 0.02%
- [^68Ga] Gallium PSMA-11 (sum of stereosiomers), HPLC [18]: 99.28%
- [^68Ga] Gallium free, HPLC [18]: 0.04%
- [^68Ga] Gallium main degradant, HPLC [18]: 0.55%
- [^68Ga] Gallium PSMA-11 (sum of stereosiomers), HPLC [19]: 99.22%
- [^68Ga] Gallium free, HPLC [19]: 0.05%
- [^68Ga] Gallium main degradant, HPLC [19]: 0.19%
- [^68Ga] Gallium PSMA-11 (sum of stereosiomers), HPLC [20]: 98.92%
- [^68Ga] Gallium free, HPLC [20]: 0.07%
- [^68Ga] Gallium main degradant, HPLC [20]: 0.26%
- [^68Ga] Gallium PSMA-11 (sum of stereosiomers), HPLC [21]: 99.40%
- [^68Ga] Gallium free, HPLC [21]: 0.00%
- [^68Ga] Gallium main degradant, HPLC [21]: 0.47%
- [^68Ga] Gallium PSMA-11 (sum of stereosiomers), HPLC [22]: 99.32%
- [^68Ga] Gallium free, HPLC [22]: 0.00%
- [^68Ga] Gallium main degradant, HPLC [22]: 0.42%
- [^68Ga] Gallium PSMA-11 (sum of stereosiomers), HPLC [23]: 99.21%
- [^68Ga] Gallium free, HPLC [23]: 0.04%
